From ChEMBL document CHEMBL1201862, “PubChem BioAssay data set” (2004)
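96-well plates; 48 h exposure; 5 concentrations. Endpoints by linear interpolation between flanking doses. Not reached: highest tested concentration assigned. GI50 marks 50% less growth.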 Activity calls are given as the source filed them. Rule as the data show it: active = GI50 up to about 1.1 µM and inactive = higher.

Columns and labels:
Assay in all cases: growth of human tumour cells (NCI), 48 h
[1] = system: 786-0
[2] = system: ACHN
[3] = system: HCC 2998
[4] = system: HCT-116
[5] = system: HT-29
[6] = system: IGROV-1
[7] = system: KM12
[8] = system: Malme-3M
[9] = system: OVCAR-5
[10] = system: SF-539
[11] = system: SK-MEL-28
[12] = system: SNB-78
[13] = system: SR
[14] = system: TK-10
[15] = system: NCI-H460
[16] = system: CAKI-1
[17] = system: HOP-62
[18] = system: BT-549
[19] = system: Hs-578T
[20] = system: MDA-MB-231

Measured: GI50

CCOC(=O)c1ccc(N2C(=O)Cc3ccccc3C2=O)cc1
inactive: [1] > 100 µM | [2] > 100 µM | [3] > 100 µM | [4] > 100 µM | [5] > 100 µM | [6] > 100 µM | [7] > 100 µM | [8] > 100 µM | [9] > 100 µM | [10] > 100 µM | [11] > 100 µM | [12] > 100 µM | [13] > 100 µM | [14] > 100 µM

CN(C)CCCNC(=O)c1cccc2ccccc12
inactive: [2] > 100 µM | [4] > 100 µM | [5] > 100 µM | [7] > 100 µM | [8] > 100 µM | [15] > 100 µM | [10] > 100 µM | [11] > 100 µM | [12] > 100 µM | [14] > 100 µM

NC(CCC(=O)NC(CSSCCCCS(=O)O)C(=O)NCC(=O)O)C(=O)O (stereo unspecified)
inactive: [1] > 100 µM | [2] > 100 µM | [16] > 100 µM | [3] > 100 µM | [4] > 100 µM | [17] > 100 µM | [5] > 100 µM | [6] > 100 µM | [7] > 100 µM | [8] > 100 µM | [15] > 100 µM | [9] > 100 µM | [10] > 100 µM | [11] > 100 µM | [12] > 100 µM | [14] > 100 µM

COc1ccc(C2C(Cl)C(=O)N2NC(=O)c2ccccc2O)cc1OC (stereo unspecified)
inactive: [1] > 100 µM | [2] > 100 µM | [4] > 100 µM | [5] 65.8 µM | [6] > 100 µM | [7] 92.3 µM | [8] 65.3 µM | [15] 49.5 µM | [10] > 100 µM | [11] > 100 µM | [12] > 100 µM | [14] > 100 µM

COc1cc2c3c(c1OC)C1(C=CC(=O)C=C1)CC3N(C(=O)OC(C)(C)C(Cl)(Cl)Cl)CC2 (stereo unspecified)
inactive: [1] 14.2 µM | [16] 14.9 µM | [4] 6.25 µM | [17] 17.6 µM | [5] 8.53 µM | [6] 16.6 µM | [7] 9.2 µM | [8] 14.2 µM | [15] 14.5 µM | [9] 2.52 µM | [10] 15.7 µM | [12] 14.4 µM | [13] 3.5 µM | [14] 43.2 µM

COC(=O)c1ccccc1NC(=O)C(=O)Cc1nc2c3c(ccc2nc1O)C(=O)c1ccccc1C3=O
inactive: [1] 16.2 µM | [2] 25 µM | [16] 10.9 µM | [3] 16.8 µM | [4] 9.29 µM | [17] 13.9 µM | [5] 35.9 µM | [6] 15.7 µM | [7] 5.26 µM | [8] 8.26 µM | [15] 16.2 µM | [9] 79.4 µM | [10] 23.9 µM | [11] 15.7 µM | [12] 34 µM | [14] 23.8 µM

O=C(O)c1ccc(NC(=O)C2C(=O)C(=O)N(c3ccc(C(=O)O)cc3)C2=O)cc1 (stereo unspecified)
inactive: [1] > 100 µM | [2] > 100 µM | [16] > 100 µM | [3] > 100 µM | [4] > 100 µM | [17] > 100 µM | [5] > 100 µM | [6] > 100 µM | [7] > 100 µM | [8] > 100 µM | [15] > 100 µM | [9] > 100 µM | [10] > 100 µM | [11] > 100 µM | [12] > 100 µM | [14] > 100 µM

CC(=O)C(CN(Cc1ccccc1)Cc1ccccc1)C(c1ccccc1)c1c(O)c2ccccc2oc1=O (stereo unspecified)
inactive: [1] > 100 µM | [2] > 100 µM | [16] > 100 µM | [4] > 100 µM | [17] > 100 µM | [5] > 100 µM | [6] > 100 µM | [7] > 100 µM | [8] > 100 µM | [15] > 100 µM | [9] > 100 µM | [10] > 100 µM | [12] > 100 µM | [13] > 100 µM | [14] > 100 µM

O=C(Nc1ccn(CCO)c(=O)n1)c1ccccc1
inactive: [1] > 100 µM | [2] > 100 µM | [16] > 100 µM | [4] > 100 µM | [17] > 100 µM | [5] > 100 µM | [6] > 100 µM | [7] > 100 µM | [8] > 100 µM | [15] > 100 µM | [9] > 100 µM | [10] > 100 µM | [11] > 100 µM | [12] > 100 µM | [13] > 100 µM | [14] > 100 µM

Cc1ccc(-c2nc3ccccc3c(=O)n2NC2OC(CO)C(O)C(O)C2O)cc1 (stereo unspecified)
inactive: [1] > 100 µM | [2] > 100 µM | [16] 39.6 µM | [3] > 100 µM | [4] > 100 µM | [17] > 100 µM | [5] > 100 µM | [6] > 100 µM | [7] > 100 µM | [8] 48.2 µM | [15] > 100 µM | [9] > 100 µM | [10] > 100 µM | [11] > 100 µM | [12] > 100 µM | [14] > 100 µM

CCCO/N=[N+](\[O-])N(CC)CC
inactive: [2] > 100 µM | [3] > 100 µM | [4] > 100 µM | [17] > 100 µM | [5] > 100 µM | [6] > 100 µM | [7] > 100 µM | [15] > 100 µM | [9] > 100 µM | [10] > 100 µM | [11] > 100 µM | [12] > 100 µM | [13] > 100 µM | [14] > 100 µM

O=C1C2=C(CCC2)Nc2cccc3ncn1c23
inactive: [1] > 100 µM | [2] 33.2 µM | [3] > 100 µM | [4] 34 µM | [6] > 100 µM | [7] 28.8 µM | [8] > 100 µM | [15] 33.7 µM | [9] 15.9 µM | [10] > 100 µM | [11] 61.9 µM | [12] > 100 µM | [13] > 100 µM | [14] 14.7 µM

CN(C)c1ccc(/C=C/C=C\c2cc(/C=C/C=C/c3ccc(N(C)C)cc3)[s+]c3ccccc23)cc1.[O-][Cl+3]([O-])([O-])[O-]
inactive: [1] 90.6 µM | [16] 10 µM | [4] 78.5 µM | [17] > 100 µM | [5] > 100 µM | [7] > 100 µM | [8] 24.4 µM | [15] > 100 µM | [9] > 100 µM | [10] > 100 µM | [11] 14.2 µM | [12] 51.4 µM | [14] > 100 µM

C[C@H]1[C@H](C)N1CC(O)Cn1ccnc1[N+](=O)[O-] (stereo partly specified)
inactive: [1] > 100 µM | [2] > 100 µM | [18] > 100 µM | [16] > 100 µM | [3] > 100 µM | [4] > 100 µM | [17] > 100 µM | [5] > 100 µM | [19] > 100 µM | [6] > 100 µM | [7] > 100 µM | [20] > 100 µM | [8] > 100 µM | [15] > 100 µM | [9] > 100 µM | [10] > 100 µM | [11] > 100 µM | [13] > 100 µM | [14] > 100 µM

Nc1nc(=O)[nH]c2c1cnn2COCCO
inactive: [2] > 100 µM | [16] > 100 µM | [4] > 100 µM | [5] > 100 µM | [6] > 100 µM | [7] > 100 µM | [8] > 100 µM | [15] > 100 µM | [9] 11.3 µM | [10] > 100 µM | [11] 37.1 µM | [12] 21.5 µM | [13] > 100 µM | [14] 20.7 µM

C=C(Cl)c1c(OC)cccc1OCc1ccccc1
inactive: [1] > 100 µM | [2] 90.8 µM | [18] > 100 µM | [16] > 100 µM | [3] 37.4 µM | [4] 56.8 µM | [17] > 100 µM | [5] 34.5 µM | [19] > 100 µM | [6] 57.5 µM | [7] 54.2 µM | [20] 64.7 µM | [8] > 100 µM | [15] > 100 µM | [9] > 100 µM | [10] > 100 µM | [11] > 100 µM | [13] 26.8 µM | [14] > 100 µM

O=[N+]([O-])c1ccc(CSc2c3ccccc3nc3ccccc23)cc1
inactive: [1] 1.93 µM | [2] 3.37 µM | [18] 18.8 µM | [16] 15.4 µM | [3] 16.1 µM | [4] 2.78 µM | [17] 18.3 µM | [5] 2.28 µM | [19] 3.21 µM | [6] 2.82 µM | [7] 4.62 µM | [20] 13.5 µM | [8] 2.34 µM | [15] 20.6 µM | [9] 15.3 µM | [10] 2.47 µM | [11] 4.67 µM | [13] 3.13 µM | [14] 6.62 µM

O=C(CCN1CCCCC1)Nc1ccc2sc3ccccc3c(=O)c2n1
inactive: [1] 11.8 µM | [2] 10.2 µM | [18] 15.5 µM | [16] 11.5 µM | [3] 14.4 µM | [4] 6.46 µM | [17] 13.1 µM | [5] 31.6 µM | [19] 19.9 µM | [6] 13.4 µM | [7] 15.9 µM | [20] 14.7 µM | [8] 28 µM | [15] 13.7 µM | [9] 18.2 µM | [10] 15.3 µM | [11] 16.7 µM | [13] 12.2 µM | [14] 15.7 µM
